From ChEMBL document CHEMBL1140044, “Structure-activity relationship study on anti-HIV 6-desfluoroquinolones” (J Med Chem, 2008)
Converted amounts (≈) assume the structure as drawn. The source made the active and inactive calls. The calls are words filed in the database; no cut-off is given here.

Assays:
[1] = test system: Human immunodeficiency virus 2; assay: Antiviral activity against HIV2 ROD in MT4 cells assessed as inhibition of virus-induced cytopathogenicity by MTT assay; type: functional, organism-based; conditions: Human immunodeficiency virus 2, ROD
[2] = Cytotoxicity against mock-infected human MT4 cells after 5 days by MTT assay; type: cell-based
[3] = test system: Human immunodeficiency virus 1; assay: Antiviral activity against HIV1 3B in MT4 cells assessed as inhibition of virus-induced cytopathogenicity by MTT assay; type: functional, organism-based; conditions: Human immunodeficiency virus 1, 3B
[4] = Selectivity index, ratio of CC50 for human MT4 cells to EC50 for HIV1 3B; type: toxicity, cell-based; conditions: read-out: Ratio CC50/EC50
[5] = Selectivity index, ratio of CC50 for human MT4 cells to EC50 for HIV2 ROD; type: toxicity, cell-based; conditions: read-out: Ratio CC50/EC50
[6] = test system: Human immunodeficiency virus 1; assay: Antiviral activity against HIV1 3B in MT4 cells assessed as virus p24 antigen production administered at 5 hrs post infection by ELISA; type: functional, organism-based
[7] = test system: Human immunodeficiency virus 1; assay: Antiviral activity against HIV1 3B in MT4 cells assessed as virus p24 antigen production administered at 16 hrs post infection by ELISA; type: functional, organism-based
[8] = Selectivity index, ratio of CC50 for human CEM cells to EC50 for HIV1 3B; type: toxicity, cell-based, CCRF-CEM; conditions: read-out: Ratio CC50/EC50
[9] = Selectivity index, ratio of CC50 for human CEM cells to EC50 for HIV2 ROD; type: toxicity, cell-based, CCRF-CEM; conditions: read-out: Ratio CC50/EC50
[10] = Selectivity index, ratio of CC50 for human PBMC cells to EC50 for HIV1 3B; type: toxicity, cell-based; conditions: read-out: Ratio CC50/EC50
[11] = test system: Human immunodeficiency virus 1; assay: Antiviral activity against HIV1 3B in PBMC assessed as inhibition of p24 production after 7 days by ELISA; type: functional, organism-based; conditions: Human immunodeficiency virus 1, 3B, 168 h
[12] = test system: Human immunodeficiency virus 1; assay: Antiviral activity against HIV1 3B in CEM cells assessed as inhibition of virus-induced syncytium formation after 4 days by microscopy; type: functional, organism-based; conditions: Human immunodeficiency virus 1, 3B, CCRF-CEM, 96 h
[13] = test system: Human immunodeficiency virus 2; assay: Antiviral activity against HIV2 ROD in CEM cells assessed as inhibition of virus-induced syncytium formation after 4 days by microscopy; type: functional, organism-based; conditions: Human immunodeficiency virus 2, ROD, CCRF-CEM, 96 h
[14] = Cytotoxicity against mock-infected human CEM cells by Coulter counter; type: cell-based; conditions: mock-infected CEM (CCRF-CEM) cells
[15] = Cytotoxicity against mock-infected human PBMC cells by trypan blue exclusion assay; type: cell-based
[16] = test system: Human immunodeficiency virus 1; assay: Inhibition of HIV1 3B production in chronically infected HUT78 cells assessed as virus p24 antigen production after 44 hrs by ELISA; type: functional, organism-based

Row | EC50 [11] [µg/mL] | EC50 [12] [µg/mL] | EC50 [13] [µg/mL] | SMILES | EC50 [1] [µg/mL] | CC50 at 120 h [2] [µg/mL] | EC50 [3] [µg/mL] | selectivity ratio [4] | selectivity ratio [5] | Activity [6] | Activity [7] | selectivity ratio [8] | selectivity ratio [9] | selectivity ratio [10] | CC50 [14] [µg/mL] | CC50 [15] [µg/mL] | Activity [16]
1 | – | – | – | Cn1cc(C(=O)NCc2ccc(F)cc2F)c(=O)c2cc(N)c(N3CCN(c4ccccn4)CC3)cc21 | > 32.2 | 32.2 (≈ 63.9 µM) | > 32.2 | < 1 | < 1 | – | – | – | – | – | – | – | –
2 | – | – | – | Cc1cccc(Sc2cc3c(cc2N)c(=O)c(C(=O)O)cn3C)c1 | > 2 | > 2 | > 2 | < 1 | < 1 | – | – | – | – | – | – | – | –
3 | – | – | – | CO/N=C(\C)c1cn(C)c2cc(N3CCN(c4ccccn4)CC3)c(N)cc2c1=O | > 92.6 | 92.7 (≈ 228 µM) | > 92.6 | < 1 | < 1 | – | – | – | – | – | – | – | –
4 | – | – | – | Cc1cn([C@H]2C[C@H](N=[N+]=[N-])[C@@H](CO)O2)c(=O)[nH]c1=O | – | – | – | – | – | Active | Active | – | – | – | – | – | –
5 | – | – | – | Cn1cc(C(=O)O)c(=O)c2cc(N)c(N3CCC(c4ccccn4)C3)cc21 (stereo not drawn) | > 90.8 | > 90.8 | > 90.8 | < 1 | < 1 | – | – | – | – | – | – | – | –
6 | 0.094 (≈ 0.257 µM) | 0.051 (≈ 0.14 µM) | 0.09 (≈ 0.246 µM) | Nc1cc2c(=O)c(C(=O)O)c[nH]c2cc1N1CCN(c2ccccn2)CC1 | 0.16 (≈ 0.438 µM) | 2.16 (≈ 5.91 µM) | 0.45 (≈ 1.23 µM) | 5 | 14 | – | – | 93 | 53 | 13 | 4.75 (≈ 13 µM) | 1.28 (≈ 3.5 µM) | –
7 | – | – | – | Cn1cc(C(=O)NCc2ccc(Cl)cc2)c(=O)c2cc(N)c(N3CCN(c4ccccn4)CC3)cc21 | > 125 | > 125 | > 125 | – | 1 | – | – | – | – | – | – | – | –
8 | – | – | – | CC(C)c1nc(CN(C)C(=O)N[C@H](C(=O)N[C@@H](Cc2ccccc2)C[C@H](O)[C@H](Cc2ccccc2)NC(=O)OCc2cncs2)C(C)C)cs1 | – | – | – | – | – | Active | Active | – | – | – | – | – | –
9 | 0.051 (≈ 0.134 µM) | 0.03 (≈ 0.0791 µM) | 0.06 (≈ 0.158 µM) | Cn1cc(C(=O)O)c(=O)c2cc(N)c(N3CCN(c4ccccn4)CC3)cc21 | 0.097 (≈ 0.256 µM) | 0.84 (≈ 2.21 µM) | 0.058 (≈ 0.153 µM) | 15 | 10 | – | – | > 3330 | > 1670 | 29 | > 100 | 1.45 (≈ 3.82 µM) | –
10 | – | – | – | Cn1cc(C(=O)O)c(=O)c2cc(N)c(N3CCN(Cc4ccccn4)CC3)cc21 | > 125 | > 125 | > 125 | – | – | – | – | – | – | – | – | – | –
11 | – | – | – | Cn1cc(C(=O)O)c(=O)c2cc(N)c(N3CCNCC3)cc21 | > 94 | ≥ 94 | > 94 | – | – | – | – | – | – | – | – | – | –
12 | 0.21 (≈ 0.565 µM) | 0.7 (≈ 1.88 µM) | 0.6 (≈ 1.62 µM) | Nc1cc2c(=O)c(C(=O)O)c[nH]c2cc1N1CCN(c2nccs2)CC1 | 1.92 (≈ 5.17 µM) | 7.61 (≈ 20.5 µM) | 1.21 (≈ 3.26 µM) | 7 | 5 | – | – | 23 | 26 | 10 | 15.8 (≈ 42.5 µM) | 2.02 (≈ 5.44 µM) | –
13 | – | – | – | Cn1cc(C(=O)O)c(=O)c2cc(N)c(N3CCC(c4ccccn4)CC3)cc21 | > 125 | > 125 | > 125 | – | – | – | – | – | – | – | – | – | –
14 | 0.28 (≈ 0.649 µM) | 0.13 (≈ 0.301 µM) | 0.28 (≈ 0.649 µM) | Cn1cc(C(=O)O)c(=O)c2ccc(N3CCN(c4cccc(C(F)(F)F)c4)CC3)cc21 | 0.13 (≈ 0.301 µM) | 2.61 (≈ 6.05 µM) | 0.07 (≈ 0.162 µM) | 38 | 21 | – | – | 9 | 4 | 2 | 1.2 (≈ 2.78 µM) | 0.69 (≈ 1.6 µM) | Active
15 | 0.16 (≈ 0.395 µM) | 0.3 (≈ 0.74 µM) | 0.23 (≈ 0.567 µM) | Nc1cc2c(=O)c(C(=O)O)c[nH]c2cc1N1CCN(c2nc3ccccc3o2)CC1 | 0.28 (≈ 0.691 µM) | 1.95 (≈ 4.81 µM) | 0.23 (≈ 0.567 µM) | 11 | 7 | – | – | 11 | 14 | 7 | 3.17 (≈ 7.82 µM) | 1.12 (≈ 2.76 µM) | –
